# Reference: patent US11167012B2, “Peptide inhibition of CCR3-mediated diseases or conditions” (The Board of Trustees of the University of Illinois, priority 2015, dated 2021)
# Entries after “also recorded” stand apart in the source; their conditions may differ. Primed or numbered codes have the meaning given here. Where no end group is shown, it is not given here. PEG27′ = polyethylene glycol chain of 27 units
# How the values were obtained:
# 4DE4-CCR3 cells = assay: Cytotoxicity in 4DE4-CCR3 cells; format: cell-based, mouse; details: concentrations tested in chemotaxis assay
# CCR3 [1] = target: T1, CCR3 (Homo sapiens, UniProt P51677); assay: Eotaxin-induced chemotaxis of 4DE4-CCR3 cells; format: cell-based; set-up: expressed in transfected cells; host or cells: 4DE4 mouse pre-B cell lymphoma line; details: 80 nM eotaxin, 4 hours
# T1 sequence (P51677 1-355): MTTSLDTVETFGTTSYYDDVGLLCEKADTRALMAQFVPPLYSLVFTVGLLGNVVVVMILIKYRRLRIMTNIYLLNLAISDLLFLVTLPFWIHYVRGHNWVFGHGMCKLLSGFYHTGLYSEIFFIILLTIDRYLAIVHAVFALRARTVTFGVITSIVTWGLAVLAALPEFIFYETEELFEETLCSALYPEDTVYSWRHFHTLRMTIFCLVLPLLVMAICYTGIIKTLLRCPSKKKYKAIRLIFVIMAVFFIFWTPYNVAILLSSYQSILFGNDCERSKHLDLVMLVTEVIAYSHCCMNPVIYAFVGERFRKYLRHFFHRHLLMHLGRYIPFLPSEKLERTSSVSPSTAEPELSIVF
# Description: Cells were pretreated with, and then allowed to migrate towards, 80 nM eotaxin in the presence of the various CCR3 transmembrane peptides for 4 hours. Data are from three independent experiments. Error bars represent SEM.
# To determine the effects of these peptides on CCR3-mediated chemotaxis, 4DE4-CCR3 cells were allowed to migrate to eotaxin/CCL11 in the presence of each peptide. 4DE4-CCR3, a mouse pre-B cell lymphoma line engineered to stably express human CCR3, has been used extensively to study CCR3 expression and CCR3-mediated chemotaxis.
# CCR3 [2] = target: T1, CCR3; assay: Chemotaxis assay (Transwell), AML14.3D10-CCR3 cells; format: cell-based; set-up: host or cells: AML14.3D10-CCR3 (eosinophilic myelocytic cell line, kept under G418); details: for tolerance to inhibition of CCL11-induced chemotaxis: 1 μM for 24, 48 or 72 hour, CCL11 12 nM; for inhibition of CCR3-mediated chemotaxis induced by Eotaxin/CCL11, RANTES/CCL5 and MEC/CCL28: AML14.3D10-CCR3 cells, R3-2-1 0.4, 2 or 10 μM
# Description: AML14.3D10-CCR3 (ATCC, Manassas, Va.; Daugherty, et al. (1996) J. Exp. Med. 183:2349-2354) were maintained in RPMI-1640 supplemented with 10% FBS, 1.5 g/L sodium bicarbonate, 4.5 g/L glucose, 2 mM L-glutamine, 10 mM HEPES, 1 mM sodium pyruvate, 50 μM β-mercaptoethanol, and 2 mg/ml G418 in a humidified incubator with 5% CO2 at 37° C.
# Cell migration was determined using a 96-well […]® system (Corning, Tewksbury, Mass.). […] The two chambers were separated by a polycarbonate filter with 5 μm pores. For AML14.3D10-CCR3 cells, 2×10^5 cells/well were resuspended in RPMI-1640+0.1% BSA and allowed to migrate for 4 hours at 37° C. For blood eosinophils, 1×10^5 cells/well were resuspended in X-VIVO 10+0.5% BSA and allowed to migrate for 3 hours at 37° C. Migrated cells were counted using a Beckman QUANTA SC flow cytometer. All experiments were performed in duplicate. Checkerboard analysis was done to distinguish chemotaxis from chemokinesis.
# (§1) Primary eosinophils and the stable CCR3+eosinophilic myelocytic cell line, AML14.3D10-CCR3 (Daugherty, et al. (1996) J. Exp. Med. 183:2349-2354) undergo CCR3-mediated chemotaxis induced by multiple chemokines including eotaxin/CCL11, RANTES/CCL5, MCP-4/CCL13, and MEC/CCL28 (Daugherty, et al. (1996) J. Exp. Med. 183:2349-2354; Pan, et al. (2000) J. Immunol. 165:2943-2949).
# ERK1/2 phosphorylation = assay: Signal transduction assay, Western blotting of phospho-ERK1/2 in AML14.3D10-CCR3 cells; format: cell-based, human; details: 10 μM, CCL11-induced
# Description: Phospho-ERK was detected using a specific antibody. The membrane was stripped and reprobed for total ERK1/2 as loading control. Immunoblots were quantified by densitometry using ImageJ. PD: PD184161, MEK inhibitor.
# AML14.3D10-CCR3 cells were serum starved for 16 hours. Cells were pretreated with vehicle control, R3-2-1 or PD184161 for 30 minutes at 37° C., and subsequently stimulated with 8 nM CCL5 or CCL11 for 2 minutes. Stimulation was stopped by adding ice cold PBS. Cells were centrifuged and lysed in RIPA buffer containing protease and phosphatase inhibitors. Cell lysates were resolved on a 12% SDS-PAGE gel (10 μg/lane), transferred to PVDF membrane and blocked in 5% milk. Phospho-ERK1/2 was detected using rabbit monoclonal antibody (clone D13.14.4E, Cell Signaling Technology, Danvers, Mass.) and secondary goat anti-rabbit IgG-HRP (Santa Cruz Biotechnology, Dallas, Tex.). As a loading control, the membrane was subsequently stripped and re-probed with an antibody against total ERK1/2 (clone 127F5, Cell Signaling Technology).
# Concurrent to ligand binding and activation, CCR3 undergoes ligand-induced desensitization and internalization (Zimmermann, et al. (1999) J. Biol. Chem. 274:12611-12618). As part of the desensitization process, CCR3 is degraded. This is thought to occur via β-arrestin recruitment to phosphorylated CCR3 and subsequent sequestration of the receptor into endosomal compartments, eventually leading to degradation. β-arrestin signaling is central in this process and is characterized by a late activation of signaling pathways such as MAPK/ERK1/2, in contrast to acute activation by G proteins. […] Therefore, the R3-2-1 peptide is a biased antagonist in that it inhibits the […] of CCL11 ligand-induced β-arrestin signaling, whereas the small molecule inhibitors are unbiased antagonists.
# CCR3 [3] = target: T1, CCR3; assay: CCR3 surface expression and internalization by flow cytometry, AML14.3D10-CCR3 cells; format: cell-based; set-up: host or cells: AML14.3D10-CCR3 (eosinophilic myelocytic cell line, kept under G418); details: for CCR3 internalization or surface accumulation on prolonged treatment: 1 μM for 24, 48 or 72 hour, with or without CCL11 (12 nM); for CCL11-induced receptor internalization: 1 μM, added concurrently with 12 nM CCL11
# Description: Error bars represent SEM. *p<0.05, compared to untreated cells; n=3.
# To assess surface expression of CCR3, cells were stained using PE-conjugated anti-human CCR3 antibody (clone 5E8, BioLegend) or PE-conjugated isotype-matched control after blocking with 10% human AB serum. To determine ligand-induced CCR3 internalization, cells were incubated with various chemokines for 1 hour at 37° C., washed once in staining buffer (PBS+0.5% BSA+0.1% NaN3) before being stained as above. After antibody staining, cells were fixed in 2% paraformaldehyde and analyzed on a QUANTA SC flow cytometer (Beckman Coulter, Indianapolis, Ind.).
# [4] = system: eosinophil recruitment into the esophageal epithelium; assay: Mouse model of EoE, oxazalone-challenged L2-IL5 transgenic mice; format: in vivo; details: i.v., 24 hours after last OXA challenge
# Description: Skin sensitized L2-IL5 transgenic mice received topical esophageal oxazalone (OXA) challenges by gavage (i.e.) on days 5, 8 and 12 (FIG. 5A). R3-2-1 peptide nanoparticles, control peptide (R3-2-3) or CCR3 inhibitor UCB35625 (UCB) were given immediately before on days 5, 8, 10 and 12 (FIG. 5A). Esophageal eosinophilia was assessed 24 hours after the last OXA challenge and treatment (day 13). […] Error bars represent SEM.
# Mice were treated i.v. with R3-2-1 peptide, scrambled R3-2-3 control peptide ([…]-PEG27-NH2; SEQ ID NO:24), or the allosteric non-selective CCR3 inhibitor, UCB35625. Eosinophil recruitment into the esophageal epithelium was assessed 24 hours after the last OXA challenge by counting eosinophils in 9 high power fields (hpf) covering the total esophagus or 3 hpf covering the distal esophagus.
# CCR3 [5] = target: T1, CCR3; assay: Chemotaxis assay (Transwell), blood eosinophils; format: cell-based; set-up: host or cells: AML14.3D10-CCR3 (eosinophilic myelocytic cell line, kept under G418); details: scramble peptide control
# Excerpt: Blood eosinophils were purified from anti-coagulated blood drawn from mild allergic asthmatic subjects. Peripheral blood was subjected to density gradient centrifugation over FICOLL-PAQUE® Plus (GE Healthcare, Pittsburgh, Pa.) media to obtain a pellet containing erythrocytes and granulocytes. After erythrocyte lysis via hypotonic shock, eosinophils were purified by negative selection using a cocktail of antibody-conjugated magnetic beads against non-eosinophils (Miltenyi Biotec, Auburn, Calif.). The eosinophils were resuspended in X-VIVO 10 without phenol red. The purity and viability of the eosinophils obtained was routinely >97% as assessed by Hema III and trypan blue staining, respectively.
# Cell migration was determined using a 96-well TRANSWELL® system (Corning, Tewksbury, Mass.). Briefly, 200 μl chemoattractant or control medium was added to the lower chamber while 100 μl cells were added to the upper chamber. The two chambers were separated by a polycarbonate filter with 5 μm pores. For AML14.3D10-CCR3 cells, 2×10^5 cells/well were resuspended in RPMI-1640+0.1% BSA and allowed to migrate for 4 hours at 37° C. […] Migrated cells were counted using a Beckman QUANTA SC flow cytometer. All experiments were performed in duplicate. Checkerboard analysis was done to distinguish chemotaxis from chemokinesis.
# as §1, with “165:2943-2949). […] In addition, R3-2-1 inhibits chemotaxis of both AML14.3D10-CCR3 and blood eosinophils induced by CCL11/Eotaxin-1, CCL24/Eotaxin-2, and CCL26/Eotaxin-3 in a dose-dependent fashion (Table 3).” for “165:2943-2949).”
Molecule,cytotoxicity (4DE4-CCR3 cells),acute (2-5 minutes) and late (30 minutes) phase phosphorylation of ERK1/2 (ERK1/2 phosphorylation),CCL11-induced receptor internalization (CCR3 [3]),other results
CDDDTIFCLVLPLLVMAICYTGII [TM5],highly cytotoxic,–,–,–
CDDDVMLVTEVIAYSHCCMNPVIYAFV [TM7],highly cytotoxic,–,–,–
Ac-VTFGVITSIVTWGLAVLAALPEFIFDDDK [TM4],–,–,–,inhibition of eotaxin-induced chemotaxis of 4DE4-CCR3 cells (CCR3 [1]): no significant CCR3 antagonism
"COC(=O)[C@H](Cc1ccc([N+](=O)[O-])cc1)NC(=O)c1cccc2ccccc12 [SB328437, N-(1-Naphthalenylcarbonyl)-4-nitro-L-phenylalanine methyl ester, reference compound]",–,inhibits both acute and late phase phosphorylation,significantly inhibit chemokine-induced CCR3 internalization,"tolerance to inhibition of CCL11-induced chemotaxis (CCR3 [2]): slowly lose their ability to antagonize CCL11-induced chemotaxis; inhibition of CCR3-mediated chemotaxis induced by Eotaxin/CCL11, RANTES/CCL5 and MEC/CCL28 (CCR3 [2]): only inhibits CCL11-induced but not CCL5- or CCL28-induced chemotaxis; CCR3 internalization or surface accumulation on prolonged treatment (CCR3 [3]): surface accumulation"
Ac-KDDDQFVPPLYSLVFTVGLLGNVVVVMILI [TM1],moderately cytotoxic,–,–,–
"CC[N+]1(C/C2=C/CCCCCC2)CCC(NC(=O)C2c3cc(Cl)ccc3Oc3ccc(Cl)cc32)CC1.[I-] (stereo not drawn) [UCB35625, 1,4-trans-1-(1-Cycloocten-1-ylmethyl)-4-[[(2,7-dichloro-9H-xanthen-9-yl)carbonyl]amino]-1-ethylpiperidinium iodide, reference compound]",–,inhibits the late phase to a higher degree than the early phase phosphorylation,significantly inhibit chemokine-induced CCR3 internalization,"tolerance to inhibition of CCL11-induced chemotaxis (CCR3 [2]): slowly lose their ability to antagonize CCL11-induced chemotaxis; inhibition of CCR3-mediated chemotaxis induced by Eotaxin/CCL11, RANTES/CCL5 and MEC/CCL28 (CCR3 [2]): potent inhibitor of chemotaxis induced by multiple CCR3 agonists in vitro; eosinophil recruitment into distal and total esophageal epithelium [4]: had no effect; also recorded: ineffective in reducing eosinophil recruitment; CCR3 internalization or surface accumulation on prolonged treatment (CCR3 [3]): surface accumulation"
"YLFLLVTVFHIWLPHNRGHVWGFDDD-PEG27-NH2 (YLFLLVTVFHIWLPHNRGHVWGFDDD-{PEG27′-NH2}) [Peptide R3-2-3, reference compound]",–,does not inhibit either acute or late phase phosphorylation,neither R3-2-1 (1 μM) nor R3-2-3 (1 μM) interfere with CCL11-induced receptor internalization,"CCL11-, CCL24-, or CCL26-induced chemotaxis of blood eosinophils (CCR3 [5]): did not inhibit"
Ac-KDDDLLSGFYHTGLYSEIFFIILLTI [TM3],–,–,–,inhibition of eotaxin-induced chemotaxis of 4DE4-CCR3 cells (CCR3 [1]): no significant CCR3 antagonism
LIFVIMAVFFIFWTPYNVAILDDDC [TM6],highly cytotoxic,–,–,–
LLNLAISDLLFLVTLPFWIHYDDDC [TM2],undetectable or low cytotoxicity,–,–,–
